ChEMBL document CHEMBL3813678, “Synthesis and anticancer activity of novel 4-morpholino-7,8-dihydro-5H-thiopyrano[4,3-d]pyrimidine derivatives bearing chromone moiety” (Bioorg Med Chem, 2016)

What was measured:
[1] = Cytotoxicity against human PC3 cells after 72 hrs by MTT assay; assay type: functional, cell-based, PC-3
HepG2 = assay: Cytotoxicity against human HepG2 cells after 72 hrs by MTT assay; assay type: functional, cell-based
A549 = assay: Cytotoxicity against human A549 cells after 72 hrs by MTT assay; assay type: functional, cell-based
HeLa = assay: Cytotoxicity against human HeLa cells after 72 hrs by MTT assay; assay type: functional, cell-based
MCF7 = assay: Cytotoxicity against human MCF7 cells after 72 hrs by MTT assay; assay type: functional, cell-based
[2] = target: T1, Serine/threonine-protein kinase mTOR (Homo sapiens, UniProt P42345); assay: Inhibition of mTOR (unknown origin) using ULight4E-BP1 peptide as substrate incubated for 1 hr by TR-FRET assay
[3] = target: T1, Serine/threonine-protein kinase mTOR; assay: Inhibition of mTOR (unknown origin) at 10 uM using ULight4E-BP1 peptide as substrate incubated for 1 hr by TR-FRET assay
[4] = target: T2, Phosphatidylinositol 4,5-bisphosphate 3-kinase catalytic subunit alpha isoform (Homo sapiens, UniProt P42336); assay: Inhibition of PI3Kalpha (unknown origin) at 10 uM using PI substrate incubated for 60 mins by kinase-glo luminescence assay
T2 sequence (P42336 whole entry, canonical isoform): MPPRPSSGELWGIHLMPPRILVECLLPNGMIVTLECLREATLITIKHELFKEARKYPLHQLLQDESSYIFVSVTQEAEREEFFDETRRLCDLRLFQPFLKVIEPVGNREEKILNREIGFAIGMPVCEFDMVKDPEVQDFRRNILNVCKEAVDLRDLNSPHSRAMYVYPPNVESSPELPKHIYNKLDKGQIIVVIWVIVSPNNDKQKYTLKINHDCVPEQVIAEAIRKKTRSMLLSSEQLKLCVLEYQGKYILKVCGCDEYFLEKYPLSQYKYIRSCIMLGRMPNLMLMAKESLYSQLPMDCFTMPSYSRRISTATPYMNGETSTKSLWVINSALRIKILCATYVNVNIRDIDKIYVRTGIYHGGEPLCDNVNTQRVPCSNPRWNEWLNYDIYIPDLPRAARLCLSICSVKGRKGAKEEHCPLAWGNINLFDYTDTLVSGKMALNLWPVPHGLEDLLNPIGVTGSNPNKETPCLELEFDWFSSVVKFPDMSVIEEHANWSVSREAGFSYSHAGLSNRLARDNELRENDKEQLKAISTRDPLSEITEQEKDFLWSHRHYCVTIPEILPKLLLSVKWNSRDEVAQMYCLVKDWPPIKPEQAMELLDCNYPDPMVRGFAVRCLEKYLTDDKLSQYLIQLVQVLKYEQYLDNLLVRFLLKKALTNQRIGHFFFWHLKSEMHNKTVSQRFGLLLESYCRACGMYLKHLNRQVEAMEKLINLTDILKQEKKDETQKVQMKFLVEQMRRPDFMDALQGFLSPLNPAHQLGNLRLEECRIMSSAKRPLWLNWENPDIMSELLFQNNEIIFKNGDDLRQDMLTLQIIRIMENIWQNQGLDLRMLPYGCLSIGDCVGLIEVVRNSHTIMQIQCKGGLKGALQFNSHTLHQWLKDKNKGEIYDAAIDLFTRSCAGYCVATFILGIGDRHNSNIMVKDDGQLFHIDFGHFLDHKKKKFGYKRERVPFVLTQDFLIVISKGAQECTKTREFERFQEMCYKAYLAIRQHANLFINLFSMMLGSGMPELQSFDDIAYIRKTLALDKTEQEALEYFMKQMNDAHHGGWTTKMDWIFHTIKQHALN

[5] = target: T2, Phosphatidylinositol 4,5-bisphosphate 3-kinase catalytic subunit alpha isoform; assay: Inhibition of PI3Kalpha (unknown origin) using PI substrate incubated for 60 mins by kinase-glo luminescence assay
[6] = Homo sapiens, PC-3, 72 h, read-out: IC50
[7] = Homo sapiens, HepG2, 72 h, read-out: IC50
[8] = Homo sapiens, A549, 72 h, read-out: IC50
[9] = Homo sapiens, HeLa, 72 h, read-out: IC50
[10] = Homo sapiens, MCF7, 72 h, read-out: IC50

SMILES | IC50 [1, 6] | IC50 (HepG2; [7]) | IC50 (A549; [8]) | IC50 (HeLa; [9]) | IC50 (MCF7; [10]) | also measured
O=c1c(/C=N/Nc2nc3c(c(N4CCOCC4)n2)CS(=O)(=O)CC3)coc2ccc(Cl)cc12 | 46.9 µM | 38.1 µM | 17.9 µM | 30.4 µM | 23.5 µM | –
O=c1c(/C=N/Nc2nc3c(c(N4CCOCC4)n2)CS(=O)(=O)CC3)coc2ccc(O)cc12 | – | – | – | – | – | IC50 ([1]; pc-3): Not Active; IC50 (A549; a549): Not Active; IC50 (MCF7; mcf7): Not Active
O=c1c(/C=N/Nc2nc3c(c(N4CCOCC4)n2)CSCC3)coc2ccc(Cl)cc12 | 32.2 µM | – | > 100 µM | 13.4 µM | – | IC50 (HepG2; hepg2): Not Active; IC50 (MCF7; mcf7): Not Active
O=C(O)c1ccc2occ(/C=N/Nc3nc4c(c(N5CCOCC5)n3)CS(=O)(=O)CC4)c(=O)c2c1 | – | – | – | – | – | IC50 ([1]; pc-3): Not Active; IC50 (A549; a549): Not Active; IC50 (MCF7; mcf7): Not Active
CCc1ccc2occ(/C=N/Nc3nc4c(c(N5CCOCC5)n3)CSCC4)c(=O)c2c1 | 23.8 µM | 13.9 µM | 21.1 µM | 10.1 µM | 11.2 µM | IC50 [2]: Not Active
CC(C)(C)c1ccc2occ(/C=N/Nc3nc4c(c(N5CCOCC5)n3)CS(=O)(=O)CC4)c(=O)c2c1 | 17.9 µM | 14.8 µM | 18.4 µM | 15.3 µM | 17.8 µM | inhibition [3]: 44.7%; inhibition [4]: 13.8%
O=c1c(/C=N/Nc2nc3c(c(N4CCOCC4)n2)CS(=O)(=O)CC3)coc2ccc([N+](=O)[O-])cc12 | – | – | – | – | – | IC50 ([1]; pc-3): Not Active; IC50 (A549; a549): Not Active; IC50 (MCF7; mcf7): Not Active
CC(C)c1ccc2occ(/C=N/Nc3nc4c(c(N5CCOCC5)n3)CSCC4)c(=O)c2c1 | 17.3 µM | 9.95 µM | 9.5 µM | 15.5 µM | 13.1 µM | IC50 [2]: Not Active
CC(C)(C)c1ccc2occ(/C=N/Nc3nc4c(c(N5CCOCC5)n3)CSCC4)c(=O)c2c1 | 15.3 µM | 1.84 µM | 11.5 µM | 0.17 µM | 3.85 µM | inhibition [3]: 36.4%; inhibition [4]: 24%
O=c1c(/C=N/Nc2nc3c(c(N4CCOCC4)n2)CS(=O)(=O)CC3)coc2ccc(F)cc12 | – | – | – | – | – | IC50 ([1]; pc-3): Not Active; IC50 (A549; a549): Not Active; IC50 (MCF7; mcf7): Not Active
Cc1ccc2occ(/C=N/Nc3nc4c(c(N5CCOCC5)n3)CS(=O)(=O)CC4)c(=O)c2c1 | 38 µM | 23.4 µM | 20.8 µM | 19.2 µM | 22.1 µM | –
CCc1ccc2occ(/C=N/Nc3nc4c(c(N5CCOCC5)n3)CS(=O)(=O)CC4)c(=O)c2c1 | 30.2 µM | 25.9 µM | 26.4 µM | 20.2 µM | 28.9 µM | –
O=c1c(/C=N/Nc2nc3c(c(N4CCOCC4)n2)CSCC3)coc2ccc(O)cc12 | > 100 µM | – | > 100 µM | – | – | IC50 (HepG2; hepg2): Not Active; IC50 (HeLa; hela): Not Active; IC50 (MCF7; mcf7): Not Active
Cc1ccc2occ(/C=N/Nc3nc4c(c(N5CCOCC5)n3)CSCC4)c(=O)c2c1 | > 100 µM | – | 42.5 µM | 15.9 µM | 36.6 µM | IC50 (HepG2; hepg2): Not Active
O=c1c(/C=N/Nc2nc3c(c(N4CCOCC4)n2)CSCC3)coc2ccc([N+](=O)[O-])cc12 | 34.9 µM | 12.7 µM | 19.8 µM | 11.5 µM | 21.4 µM | inhibition [3]: 66.4%; inhibition [4]: 16.7%
O=c1c(/C=N/Nc2nc3c(c(N4CCOCC4)n2)CSCC3)coc2ccc(Br)cc12 | > 100 µM | > 100 µM | > 100 µM | > 100 µM | > 100 µM | –
CS(=O)(=O)N1CCN(Cc2cc3nc(-c4cccc5[nH]ncc45)nc(N4CCOCC4)c3s2)CC1 [PICTILISIB] | 0.2 µM | – | 6.99 µM | – | 0.07 µM | –
O=C(O)c1ccc2occ(/C=N/Nc3nc4c(c(N5CCOCC5)n3)CSCC4)c(=O)c2c1 | 14.3 µM | 8.77 µM | 10.5 µM | 10.3 µM | 11.8 µM | IC50 ([2]; read-out: IC50): 1.1 µM; IC50 ([5]; read-out: IC50): 0.92 µM
O=c1c(/C=N/Nc2nc3c(c(N4CCOCC4)n2)CS(=O)(=O)CC3)coc2ccc(Br)cc12 | 65.1 µM | – | 50.5 µM | – | 60.3 µM | IC50 (HepG2; hepg2): Not Active; IC50 (HeLa; hela): Not Active
COc1cc(/C=N/Nc2nc3c(c(N4CCOCC4)n2)CSCC3)cc(OC)c1O | – | – | 7.43 µM | – | 5.84 µM | IC50 [5]: Not Active
O=c1c(/C=N/Nc2nc3c(c(N4CCOCC4)n2)CSCC3)coc2ccc(F)cc12 | 83.9 µM | 0.28 µM | 6.9 µM | 0.38 µM | 11.3 µM | IC50 [2]: Not Active
CC(C)c1ccc2occ(/C=N/Nc3nc4c(c(N5CCOCC5)n3)CS(=O)(=O)CC4)c(=O)c2c1 | 34.9 µM | 27.9 µM | 25.7 µM | 26.5 µM | 27.3 µM | –
